Assay [1] deals with zebrafish embryo. The experiment in a line: Antimelanogenesis effect in zebrafish embryos (melanin content by ImageJ). Format: in vivo, zebrafish (Danio rerio). The note with it: for IC50: Danio rerio, read-out: IC50 of melanogenesis inhibition activity in zebrafish; for effect on melanogenesis of zebrafish: concentration 50 μM. How it is done:
Zebrafish (Danio rerio) of wild-type AB strain were maintained in a healthy aquatic environment at 26–30 °C, with a 14:10 h light–dark cycle. After 9 h post fertilization (hpf), embryos were placed into a 24-well plate (3 embryos per well), treated with various final concentrations of specimens dissolved in 1% DMSO, and incubated at 28 °C for 48 h (at 57 hpf). The digital image of live zebrafish embryo was taken through a stereomicroscope (Olympus SZ61, Tokyo, Japan) at a total magnification of 40×; then, the melanin content of zebrafish embryo was analyzed by the ImageJ software. […] The number of replications was six.

For assay [2], the system named is mushroom tyrosinase. The experiment in a line: Enzyme kinetic study (Lineweaver–Burk plot). Format: biochemical. The note with it: for Potential (trend of Vmax with concentration): 0-100 μg/mL; for Inhibition Type: L-tyrosine and L-DOPA substrates, Lineweaver–Burk. The procedure: Enzyme kinetic study is analyzed by the Lineweaver–Burk reciprocal plot of the reaction rate and the concentration of the substrate to evaluate the effect of the specimen on the affinity of the substrate and enzyme. […] The reaction was similar to antityrosinase assay as described above; 40 µL of specimen solution and 70 µL of potassium phosphate buffer (0.1 M, pH 6.8) were mixed, which was followed by adding 50 µL of 200 unit/mL tyrosinase, after incubation at 25 °C for 10 min.

The mark [3] stands for this setting: embryos treated 9 hpf to 57 hpf (48 h).

Like-named read-outs stand apart in the source and are kept apart here.

Consider `OC[C@H]1O[C@@H](Oc2ccc(O)cc2)[C@H](O)[C@@H](O)[C@@H]1O` [Arbutin, arbutin, reference compound], for which the half-inhibitory concentration (IC50) in assay [1] (setting [3]) turned out to be 324 ± 19.8 µM. Further, in assay [1], the “effect on melanogenesis of zebrafish” value is reported as “could reduce the melanin formation”.

As for `O=c1c(O)c(-c2cc(O)c(O)c(O)c2)oc2cc(O)cc(O)c12` [Myricetin], in assay [1] (setting [3]), the half-maximal inhibitory concentration (IC50) worked out at 350 ± 42.7 µM. In addition, the “effect on melanogenesis of zebrafish” value in assay [1] is reported as “slight melanin inhibition effect”. The “Potential (trend of Vmax with concentration)” value (from here on “Potential”) in assay [2] (L-DOPA substrate) and in assay [2] (L-Tyrosine substrate) was “↓” each time. For the same molecule, the “Inhibition Type” value in assay [2] was “mixed-type inhibitor”.

On to `NC(=S)Nc1ccccc1` [PTU, 1-phenyl-2-thiourea, reference compound], for which, in assay [1] (48 h), the IC50 is 26.3 ± 4.17 µM. Besides, the “effect on melanogenesis of zebrafish” value in assay [1] is reported as “could reduce the melanin formation”.

`O=C(O)c1cc(O)c(O)c(O)c1` [Gallic acid]: in assay [1] (embryos treated 9 hpf to 57 hpf (48 h), dash defined in footnote), the concentration for half-maximal inhibition (IC50) is over 400 µM. The “Potential” value in assay [2] (L-DOPA substrate) and in assay [2] (L-Tyrosine substrate) was “―” throughout. Moreover, the “Inhibition Type” value is listed as “Competitive” in assay [2] and “competitive inhibitor” in assay [2] (listed as gallic acid).

Consider `COc1c(O)cc(-c2oc3cc(O)cc(O)c3c(=O)c2O)cc1O` [Mearnsetin, 4′-O-methyl myricetin], for which the half-maximal inhibitory concentration (IC50) in assay [1] (setting [3]) was 121 ± 0.96 µM. For the same molecule, in assay [1], the “effect on melanogenesis of zebrafish” value was “better melanogenesis inhibition activity”. Besides, the “Potential” value in assay [2] (L-DOPA substrate) and in assay [2] (L-Tyrosine substrate) was “―” in each case. The entries for the “Inhibition Type” value in assay [2] and in assay [2] (listed as mearnsetin) were “Competitive” and “competitive inhibitor”, respectively.

The term IC50 denotes the concentration that gives 50% inhibition.

The record behind these values is publication PMC8309042, “Antimelanogenesis Effects of Leaf Extract and Phytochemicals from Ceylon Olive (Elaeocarpus serratus) in Zebrafish Model” (Pharmaceutics, 2021).
